In ChEMBL document CHEMBL1127986, “Synthesis and Biological Evaluation of New Leukotriene Analogs” (Bioorg Med Chem Lett, 1994):
Activity calls are given as the source filed them. No cut-off for these calls is given here.

What was measured:
[1] = target: T1, Arachidonate 12-lipoxygenase (Rattus norvegicus) (UniProt Q02759); assay: Inhibition of 12-lipoxygenase was evaluated in rat platelets stimulated by thrombin up to a concentration of 10 uM; NE means No effect
T1 sequence (whole entry): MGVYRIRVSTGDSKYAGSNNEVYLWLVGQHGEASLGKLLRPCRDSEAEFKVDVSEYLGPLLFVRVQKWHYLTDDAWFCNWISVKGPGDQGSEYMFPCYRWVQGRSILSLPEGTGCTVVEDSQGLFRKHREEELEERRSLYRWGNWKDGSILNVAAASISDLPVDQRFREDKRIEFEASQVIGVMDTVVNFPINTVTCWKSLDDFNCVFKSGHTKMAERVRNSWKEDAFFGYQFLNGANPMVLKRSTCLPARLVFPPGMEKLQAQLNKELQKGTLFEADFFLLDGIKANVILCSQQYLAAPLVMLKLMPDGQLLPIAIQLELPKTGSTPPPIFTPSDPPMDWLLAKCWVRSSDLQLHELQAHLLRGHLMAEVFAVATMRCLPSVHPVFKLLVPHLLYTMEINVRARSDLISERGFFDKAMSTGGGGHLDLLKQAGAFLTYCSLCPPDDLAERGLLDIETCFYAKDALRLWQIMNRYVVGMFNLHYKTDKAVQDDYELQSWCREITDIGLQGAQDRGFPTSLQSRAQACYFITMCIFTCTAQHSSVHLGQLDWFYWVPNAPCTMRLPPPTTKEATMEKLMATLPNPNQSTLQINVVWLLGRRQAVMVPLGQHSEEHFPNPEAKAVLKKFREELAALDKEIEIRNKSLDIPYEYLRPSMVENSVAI

[2] = target: T2, Polyunsaturated fatty acid 5-lipoxygenase (Homo sapiens, UniProt P09917); assay: Inhibition of 5-lipoxygenase was evaluated in human polymorphonuclear leukocytes stimulated by calcium ionophore A-23187 for formation of 5-HETE; NA means Not active; type: cell-based
T2 sequence (P09917 whole entry): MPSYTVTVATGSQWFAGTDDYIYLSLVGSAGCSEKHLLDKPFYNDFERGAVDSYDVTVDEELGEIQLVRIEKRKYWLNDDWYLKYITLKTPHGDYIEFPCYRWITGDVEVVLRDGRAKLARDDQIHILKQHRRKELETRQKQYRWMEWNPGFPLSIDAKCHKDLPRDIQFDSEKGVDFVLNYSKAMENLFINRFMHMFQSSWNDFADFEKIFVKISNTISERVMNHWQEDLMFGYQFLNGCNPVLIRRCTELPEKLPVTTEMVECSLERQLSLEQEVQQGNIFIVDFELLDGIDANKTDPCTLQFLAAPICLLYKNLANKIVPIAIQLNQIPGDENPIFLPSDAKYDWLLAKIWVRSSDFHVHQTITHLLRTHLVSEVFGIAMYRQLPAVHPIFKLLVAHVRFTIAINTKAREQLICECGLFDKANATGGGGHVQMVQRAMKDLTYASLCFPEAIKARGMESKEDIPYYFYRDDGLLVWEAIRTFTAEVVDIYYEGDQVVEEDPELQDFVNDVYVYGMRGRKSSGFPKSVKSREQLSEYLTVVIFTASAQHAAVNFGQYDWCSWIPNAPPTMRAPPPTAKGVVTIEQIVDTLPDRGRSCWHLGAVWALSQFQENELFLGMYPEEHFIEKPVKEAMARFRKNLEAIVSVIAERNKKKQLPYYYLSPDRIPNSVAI

[3] = target: T2, Polyunsaturated fatty acid 5-lipoxygenase; assay: Inhibition of 5-lipoxygenase was evaluated in human polymorphonuclear leukocytes stimulated by calcium ionophore A-23187 for formation of LTB4; NA means Not active; type: cell-based
[4] = target: Cyclooxygenase (Rattus norvegicus) (UniProt P35355+Q63921); assay: Inhibition of cyclooxygenase was evaluated in rat platelets stimulated by thrombin up to a concentration of 10 uM; NE means No effect
[5] = target: T3, Polyunsaturated fatty acid 5-lipoxygenase (Homo sapiens) (UniProt P09917); assay: Inhibition of 5-lipoxygenase was evaluated in human polymorphonuclear leukocytes stimulated by calcium ionophore A-23187 for formation of 5-HETE at 10 uM; type: cell-based
T3 sequence (whole entry): T2 sequence (P09917 whole entry)

[6] = target: T3, Polyunsaturated fatty acid 5-lipoxygenase (Homo sapiens); assay: Inhibition of 5-lipoxygenase was evaluated in human polymorphonuclear leukocytes stimulated by calcium ionophore A-23187 for formation of LTB4 at 10 uM; type: cell-based
[7] = target: T3, Polyunsaturated fatty acid 5-lipoxygenase (Homo sapiens); assay: Inhibition of 5-lipoxygenase was evaluated in human polymorphonuclear leukocytes stimulated by calcium ionophore A-23187 for formation of LTB4 at 10 uM; NA means Inactive; type: cell-based
[8] = target: T3, Polyunsaturated fatty acid 5-lipoxygenase (Homo sapiens); assay: Inhibition of 5-lipoxygenase was evaluated in human polymorphonuclear leukocytes stimulated by calcium ionophore A-23187 for formation of 5-HETE at 10 uM; NA means Inactive; type: cell-based
[9] = target: T2, Polyunsaturated fatty acid 5-lipoxygenase; assay: Inhibition of 5-lipoxygenase was evaluated in human polymorphonuclear leukocytes stimulated by calcium ionophore A-23187 for formation of 5-HETE; type: cell-based
[10] = target: T2, Polyunsaturated fatty acid 5-lipoxygenase; assay: Inhibition of 5-lipoxygenase was evaluated in human polymorphonuclear leukocytes stimulated by calcium ionophore A-23187 for formation of LTB4; type: cell-based

Row | SMILES | Activity [1] | IC50 [2] | IC50 [3] | Activity [4] | inhibition [5] [%] | inhibition [6] [%] | other results
1 | CCCCC/C=C\C\C=C/C=C/C=C/C(CCC/C=N/O)OC (centres undefined) | inactive | Not Active | Not Active | inactive | – | – | –
2 | CCCCC/C=C\C\C=C/C=C/C=C/C(O)CCCCC (centres undefined) | – | – | – | – | 95 | 95 | –
3 | CCCCC/C=C\C\C=C/C=C/C=C/[C@@H](O)CCC/C=N/O | inactive | Not Active | Not Active | inactive | – | – | –
4 | CCCCC/C=C\Cc1ccc(/C=C/C(O)CCC/C=N\O)cc1 (centres undefined) | inactive | – | – | inactive | – | – | inhibition [7]: inactive; inhibition [8]: inactive
5 | CCCCCCCC\C=C/C=C/C=C/C(O)CCC/C=N/O (centres undefined) | – | Not Active | Not Active | – | – | – | –
6 | CCCCC/C=C\C/C=C\C=C\C(O)CCC/C=N/O (centres undefined) | – | – | – | – | < 40 | 60 | –
7 | CCCCC/C=C\C\C=C/C=C/C=C/[C@H](O)CCC/C=N/O | inactive | – | – | inactive | – | – | IC50 [9]: 2.8 µM; IC50 [10]: 3.3 µM
8 | CCCCC/C=C\C\C=C/C=C/C=C/C(O)CC/C=N\O (centres undefined) | inactive | – | – | inactive | 95 | 95 | –
9 | CCCCC/C=C\C\C=C/C=C/C=C/C(O)CCC/C=N/OC (centres undefined) | inactive | – | – | inactive | 95 | 95 | –
10 | CCCCC/C=C\C\C=C/C=C/C=C/C(O)CCC/C=N/O (racemic) | inactive | – | – | inactive | – | – | IC50 [9]: 5.4 µM; IC50 [10]: 4.4 µM
